Data as given in patent US11124485B2, “Deoxyuridine triphosphatase inhibitors containing cyclopropano linkage” (CV6 Therapeutics (NI) Limited, priority 2015, dated 2021).

Key:
[1] = test system: colorectal (HCT116 and SW620) cell line models; experiment: MTS growth inhibition assay; format: cell-based; details: increasing concentrations of 5-FU between 0 and 100 μmol/L; both colorectal cancer cell lines
Experimental: The Cell Titer AQueous MTS assay (Promega) is carried out according to the manufacturers guidelines. […] The combination effect is determined by the combination index (CI) method utilizing Calcusyn software (Biosoft, Ferguson, Mo.). Fraction affected (FA) is calculated from the percent growth inhibition: FA=(100−% growth inhibition)/100.
Test compounds are evaluated for their antitumor activity in colorectal cancer cells using the MTS growth inhibition assay. HCT116 and SW620 cells are exposed to increasing concentrations of each agent for 72 hours and growth inhibition is directly compared to vehicle-treated controls. The NSCLC cell lines A549 and H1299 are exposed to increasing concentrations of each agent for 72 hours and growth inhibition is directly compared to vehicle-treated controls.
MTS growth inhibition assays are performed to evaluate the effectiveness of the test compounds alone and in combination with the fluoropyrimidine thymidylate synthase (TS) inhibitor 5-fluorouracil (5-FU) at inhibiting the growth of colorectal (HCT116 and SW620) cell line models. […] Simultaneous treatment with increasing concentrations of 5-FU and a test compound at fixed concentrations of 25 μmol/L is determined.

[2] = test system: colorectal (HCT116), breast (MCF-7) and non-small cell lung (H1299, A549, H358 and H460) cell line models; experiment: Colony forming assay; format: cell-based; details: increasing concentrations of FUdR between 0.5 and 2.5 μmol/L; all cell lines evaluated
Experimental: Colony forming assay showing the ability of colon (SW620, HCT116), non-small cell lung (A549, H460, H1299 and H358) and breast (MCF7) cancer cells to survive and proliferate following transient 24 hour exposure to test compounds, FUdR and combinations are determined. Specifically, cells are seeded at densities between 50 and 100 cells/well in 24-well plates. Twenty-four hours later, cells are treated with increasing concentrations of a test compound, a fixed dose of FUdR and combinations of these. After 24 hours, drug is removed, cells are rinsed and allowed to outgrow for 10-14 days. At the conclusion of the outgrowth, cells are fixed in 60% ice cold methanol and stained with 0.1% crystal violet, scanned and counted. Data is presented as percentage of untreated controls (mean±SD). Fraction affected and combination indexes are calculated according to the method of Chou and Talalay where <1 is indicative of a synergistic drug interaction.
Colony forming assays are performed to evaluate the effectiveness of test compounds alone and in combination with the fluoropyrimidine thymidylate synthase (TS) inhibitor fluorodeoxyuridine (FUdR) at reducing cancer cell viability in colorectal (HCT116), breast (MCF-7) and non-small cell lung (H1299, A549, H358 and H460) cell line models. […]

SMILES	growth inhibition [1]	colonies formed [2]
O=c1[nH]cc(F)c(=O)[nH]1 [Compound 5-FU, 5-fluorouracil]	dose-dependent increases in growth inhibition	–
O=c1[nH]c(=O)n([C@H]2C[C@H](O)[C@@H](CO)O2)cc1F [FUdR, fluorodeoxyuridine]	–	dose-dependent decreases in colonies formed
